Experimental data taken from ChEMBL document CHEMBL4371047, “Effect of α-Methoxy Substitution on the Anti-HIV Activity of Dihydropyrimidin-4(3 H)-ones” (J Med Chem, 2019).

Legend:
[1] = test system: Human immunodeficiency virus 1; experiment: Antiviral activity against HIV-1 IRLL98 harboring reverse transcriptase M41L, D67N, Y181C, M184V, R211K, and T215Y mutants infected in human MT4 cells assessed as inhibition of virus-induced cytopathic effect after 5 days by MTT assay; format: functional, organism-based; details: Human immunodeficiency virus 1, IRLL98, MT4, 120 h
[2] = test system: Human immunodeficiency virus 1; experiment: Resistance index, ratio of EC50 for HIV-1 harboring reverse transcriptase K103N/Y181C double mutant to EC50 for wild type HIV-1 NL4-3; format: functional
[3] = test system: Human immunodeficiency virus 1; experiment: Resistance index, ratio of EC50 for HIV-1 IRLL98 harboring reverse transcriptase M41L, D67N, Y181C, M184V, R211K, and T215Y mutants to EC50 for wild type HIV-1 NL4-3; format: functional
[4] = Therapeutic index, ratio of CC50 for human MT4 cells to EC50 for HIV-1 NL4-3 infected in human MT4 cells; format: toxicity, cell-based; details: read-out: Ratio CC50/EC50
[5] = test system: Human immunodeficiency virus 1; experiment: Antiviral activity against HIV-1 harboring reverse transcriptase K103N/Y181C double mutant infected in human MT4 cells assessed as inhibition of virus-induced cytopathic effect after 5 days by MTT assay; format: functional, organism-based; details: Human immunodeficiency virus 1, MT4, 120 h
[6] = Cytotoxicity against human MT4 cells assessed as reduction in cell viability after 5 days by MTT assay; format: cell-based
[7] = test system: Human immunodeficiency virus type 1 reverse transcriptase (Human immunodeficiency virus 1), Q72547 [L100I]
[8] = test system: Human immunodeficiency virus 1; experiment: Resistance index, ratio of ID50 for recombinant HIV-1 His-tagged reverse transcriptase p66/p51 Y181I mutant to ID50 for recombinant wild type HIV-1 reverse transcriptase His-tagged p66/p51
[9] = test system: Human immunodeficiency virus 1; experiment: Antiviral activity against HIV 1 harboring reverse transcriptase Y181C mutant infected in human MT4 cells assessed as inhibition of virus-induced cytopathic effect after 5 days by MTT assay; format: functional, organism-based; details: Human immunodeficiency virus 1, MT4, 120 h
[10] = test system: Human immunodeficiency virus 1; experiment: Antiviral activity against HIV-1 harboring reverse transcriptase Y188L mutant infected in human MT4 cells assessed as inhibition of virus-induced cytopathic effect after 5 days by MTT assay; format: functional, organism-based; details: Human immunodeficiency virus 1, MT4, 120 h
[11] = test system: Human immunodeficiency virus 1; experiment: Antiviral activity against wild type HIV 1 NL4-3 infected in human MT4 cells assessed as inhibition of virus-induced cytopathic effect after 5 days by MTT assay; format: functional, organism-based; details: Human immunodeficiency virus 1, NL4-3, MT4, 120 h
[12] = test system: Human immunodeficiency virus 1; experiment: Resistance index, ratio of ID50 for recombinant HIV-1 His-tagged reverse transcriptase p66/p51 K103N mutant to ID50 for recombinant wild type HIV-1 reverse transcriptase His-tagged p66/p51
[13] = test system: Human immunodeficiency virus 1; experiment: Resistance index, ratio of ID50 for recombinant HIV-1 His-tagged reverse transcriptase p66/p51 L100I mutant to ID50 for recombinant wild type HIV-1 reverse transcriptase His-tagged p66/p51
[14] = test system: Human immunodeficiency virus 1; experiment: Antiviral activity against HIV-1 harboring reverse transcriptase K103N mutant infected in human MT4 cells assessed as inhibition of virus-induced cytopathic effect after 5 days by MTT assay; format: functional, organism-based; details: Human immunodeficiency virus 1, MT4, 120 h
[15] = test system: Human immunodeficiency virus 1; experiment: Potency index, ratio of TMC120 EC50 to compound EC50 for HIV-1 IRLL98 harboring reverse transcriptase M41L, D67N, Y181C, M184V, R211K, and T215Y mutants infected in human MT4 cells; format: functional
[16] = test system: Human immunodeficiency virus 1; experiment: Resistance index, ratio of EC50 for HIV-1 harboring reverse transcriptase Y188L mutant to EC50 for wild type HIV-1 NL4-3; format: functional
[17] = test system: Human immunodeficiency virus 1; experiment: Potency index, ratio of EFV EC50 to compound EC50 for HIV-1 IRLL98 harboring reverse transcriptase M41L, D67N, Y181C, M184V, R211K, and T215Y mutants infected in human MT4 cells; format: functional
[18] = test system: Human immunodeficiency virus 1; experiment: Potency index, ratio of EFV EC50 to compound EC50 for HIV-1 harboring reverse transcriptase K103N/Y181C double mutant infected in human MT4 cells; format: functional
[19] = test system: Human immunodeficiency virus 1; experiment: Resistance index, ratio of EC50 for HIV-1 harboring reverse transcriptase K103N mutant to EC50 for wild type HIV-1 NL4-3; format: functional
[20] = test system: Human immunodeficiency virus type 1 reverse transcriptase (Human immunodeficiency virus 1), Q72547 [K103N]
Description: Inhibition of recombinant HIV-1 His-tagged reverse transcriptase p66/p51 K103N mutant expressed in Escherichia coli assessed as reduction in [3H]dTTP incorporation using poly(rA)/oligo(dT) as template/primer after 20 mins by scintillation counting analysis

[21] = test system: Human immunodeficiency virus type 1 reverse transcriptase (Human immunodeficiency virus 1), Q72547 [Y181I]
[22] = molecular target: Human immunodeficiency virus type 1 reverse transcriptase (Human immunodeficiency virus 1) (UniProt Q72547)
Description: Inhibition of recombinant wild type HIV-1 His-tagged reverse transcriptase p66/p51 expressed in Escherichia coli assessed as reduction in [3H]dTTP incorporation using poly(rA)/oligo(dT) as template/primer after 20 mins by scintillation counting analysis

[23] = test system: Human immunodeficiency virus 1; experiment: Resistance index, ratio of EC50 for HIV-1 harboring reverse transcriptase Y181C mutant to EC50 for wild type HIV-1 NL4-3; format: functional

| Structure (SMILES) | EC50 [1] | Ratio EC50 [2] | Ratio EC50 [3] | selectivity ratio [4] | EC50 [5] | CC50 at 120 h [6] | ID50 [7] | Ratio [8] | EC50 [9] | EC50 [10] | EC50 [11] | Ratio [12] | Ratio [13] | EC50 [14] | Ratio EC50 [16] | Ratio EC50 [19] | ID50 [20] | ID50 [21] | ID50 [22] | Ratio EC50 [23] | other results |
| --- | --- | --- | --- | --- | --- | --- | --- | --- | --- | --- | --- | --- | --- | --- | --- | --- | --- | --- | --- | --- | --- |
| CCC(C)Sc1nc(C(C)c2c(F)cccc2Cl)c(C)c(=O)[nH]1 (centres undefined) | 95 nM | 1367 | 317 | > 5000 | 410 nM | > 1.5 µM |  |  |  |  |  |  |  |  |  |  |  |  |  |  |  |
| CCCN(C)c1nc(C(OC)c2c(Cl)cccc2Cl)c(C)c(=O)[nH]1 (centres undefined) | 2 nM | 34 | 2 | 70800 to 78700 | 31 nM | 70.8 µM | 340 to 420 nM | 46 to 47 | 11 to 14 nM | 30 to 35 nM | 0.9 to 1 nM | 2 | 21 to 23 | 6 to 7 nM | 30 - 39 | 7 | 38 to 42 nM | 740 to 840 nM | 16 to 18 nM | 11 - 16 | Ratio EC50 [15]: 3 - 10; Ratio EC50 [17]: 2000 - 3000; Ratio EC50 [18]: 5 - 15 |
| Cc1cc(C#N)cc(C)c1Oc1nc(Nc2ccc(C#N)cc2)nc(N)c1Br [ETRAVIRINE] |  | 38 |  | 7000 |  | 3.5 µM |  |  | 9 nM |  | 0.5 nM |  |  | 2 nM | 40 | 4 | 85 nM |  | 6 nM | 18 |  |
| CCC(C)Sc1nc(C(OC)c2c(F)cccc2Cl)c(C)c(=O)[nH]1 (centres undefined) | 0.6 nM | 140 | 3 | 264000 | 28 nM | 52.8 µM | 120 nM | 711 | 27 nM | 55 nM | 0.2 nM | 13 | 133 | 1 nM | 275 | 5 | 12 nM | 640 nM | 0.9 nM | 135 | Ratio EC50 [15]: 3 - 10; Ratio EC50 [17]: 2000 - 3000; Ratio EC50 [18]: 5 - 15 |
| Cc1c(C(C)c2c(F)cccc2Cl)nc(SC(C)C)[nH]c1=O (centres undefined) | 75 nM | 6750 | 1875 | > 375000 | 270 nM | > 15 µM |  |  |  |  |  |  |  |  |  |  |  |  |  |  |  |
| COC(c1nc(SC(C)C)[nH]c(=O)c1C)c1c(F)cccc1Cl (centres undefined) | 1 nM | 92 | 2 | 140000 to 233000 | 46 nM | > 70 µM | 900 to 950 nM | 320 to 375 | 25 to 45 nM | 52 to 72 nM | 0.3 to 0.5 nM | 18 to 20 | 190 to 225 | 6 to 8 nM | 144 - 173 | 16 - 20 | 81 to 89 nM | 1500 to 1600 nM | 4 to 5 nM | 83 - 90 | Ratio EC50 [15]: 3 - 10; Ratio EC50 [17]: 2000 - 3000; Ratio EC50 [18]: 5 - 15 |
| COC(c1nc(NC2CCCC2)[nH]c(=O)c1C)c1c(F)cccc1F (centres undefined) | 2 nM | 85 | 2 | 82900 to 93200 | 77 nM | 74.6 µM | 350 nM | 57 | 69 to 75 nM | 700 to 740 nM | 0.8 to 0.9 nM | 3 | 23 | 5 to 6 nM | 822 - 875 | 6 - 7 | 39 nM | 850 nM | 15 nM | 83 - 86 | Ratio EC50 [15]: 3 - 10; Ratio EC50 [17]: 2000 - 3000; Ratio EC50 [18]: 5 - 15 |
| Cc1c(C(C)c2c(F)cccc2F)nc(NC2CCCC2)[nH]c1=O (centres undefined) | 85 nM | 17 | 3 | 3600 | 420 nM | 90 µM | 500 nM | 57 | 220 nM | 950 nM | 25 nM |  | 17 | 410 nM | 38 | 16 | 380 nM | 1700 nM | 30 nM | 9 |  |
